Values of other authors as cited in PubChem BioAssay AID1259409 (Chemical Carcinogenesis Research Information System (CCRIS), 2018).

System: rodent chemically induced tumor inhibition, incidence and multiplicity
Assay: CCRIS tumor inhibitor studies

## CCCCCCCCCCCCOC(=O)c1cc(O)c(O)c(O)c1
Carcinogen: 7,12-DIMETHYLBENZ[A]ANTHRACENE, 57-97-6, Dose [Inhibitor]: 0, 10 UMOL IN 0.4 ML ACETONE 20 MIN PRIOR TO EACH PROMOTER DOSE (STUDY DURATION: 47 WK), Route [Inhibitor]: DERMAL, Species: MOUSE, Strain/Sex: CF-1/FEMALE, Target Tissue: Type of Lesion: SKIN: CARCINOMA, Dose [Carcinogen]: 100 NMOL IN 0.2 ML ACETONE ONCE
  tumour outcome (control, treated, inhibition, significance): 67%, 17%, 75%, not calculated
Carcinogen: 7,12-DIMETHYLBENZ[A]ANTHRACENE, 57-97-6, Dose [Inhibitor]: 0, 10 UMOL IN 0.4 ML ACETONE 20 MIN PRIOR TO EACH PROMOTER DOSE (STUDY DURATION: 47 WK), Route [Inhibitor]: DERMAL, Species: MOUSE, Strain/Sex: CF-1/FEMALE, Target Tissue: Type of Lesion: SKIN: PAPILLOMA, Dose [Carcinogen]: 100 NMOL IN 0.2 ML ACETONE ONCE
  tumour outcome (control, treated, inhibition, significance): 94%, 90%, 4%, not calculated

## C=CCN=C=S
Carcinogen: 4-(METHYLNITROSAMINO)-1-(3-PYRIDYL)-1-BUTANONE, 64091-91-4, Dose [Inhibitor]: 0, 1 UMOL ONCE 2 HR PRIOR TO CARCINOGEN DOSE (STUDY DURATION: 16 WK), Route [Inhibitor]: GAVAGE, Species: MOUSE, Strain/Sex: STRAIN-A/FEMALE, Target Tissue: Type of Lesion: LUNG: ADENOMA, Dose [Carcinogen]: 10 UMOL IN 0.1 ML SALINE ONCE, Promoter: NONE USED
  tumour outcome (control, treated, inhibition, significance): 100%, 100%, 0%, not significant
Carcinogen: 4-(METHYLNITROSAMINO)-1-(3-PYRIDYL)-1-BUTANONE, 64091-91-4, Dose [Inhibitor]: 0, 5 UMOL ONCE 2 HR PRIOR TO CARCINOGEN DOSE (STUDY DURATION: 16 WK), Route [Inhibitor]: GAVAGE, Species: MOUSE, Strain/Sex: STRAIN-A/FEMALE, Target Tissue: Type of Lesion: LUNG: ADENOMA, Dose [Carcinogen]: 10 UMOL IN 0.1 ML SALINE ONCE, Promoter: NONE USED
  tumour outcome (control, treated, inhibition, significance): 100%, 100%, 0%, not significant

## CC(C)c1cc(C(=O)O)c([O-])c(C(C)C)c1.CC(C)c1cc(C(=O)O)c([O-])c(C(C)C)c1.[Cu+2]
Carcinogen: 7,12-DIMETHYLBENZ[A]ANTHRACENE, 57-97-6, Dose [Inhibitor]: 500 NMOL IN 0.2 ML ACETONE APPLIED ONCE TO DORSAL SKIN 15 MIN PRIOR TO CARCINOGEN DOSE (STUDY DURATION: 20 WK), Route [Inhibitor]: DERMAL, Species: MOUSE, Strain/Sex: SENCAR/FEMALE, Target Tissue: Type of Lesion: SKIN: PAPILLOMA, Dose [Carcinogen]: 10 NMOL IN 0.2 ML ACETONE ONCE
  tumour outcome (control, treated, inhibition, significance): 100%, 100%, 0%, not significant
Carcinogen: 7,12-DIMETHYLBENZ[A]ANTHRACENE, 57-97-6, Dose [Inhibitor]: 1000 NMOL IN 0.2 ML ACETONE APPLIED ONCE TO DORSAL SKIN 15 MIN PRIOR TO CARCINOGEN DOSE (STUDY DURATION: 20 WK), Route [Inhibitor]: DERMAL, Species: MOUSE, Strain/Sex: SENCAR/FEMALE, Target Tissue: Type of Lesion: SKIN: PAPILLOMA, Dose [Carcinogen]: 10 NMOL IN 0.2 ML ACETONE ONCE
  tumour outcome (control, treated, inhibition, significance): 100%, 100%, 0%, not significant
Carcinogen: 7,12-DIMETHYLBENZ[A]ANTHRACENE, 57-97-6, Dose [Inhibitor]: 2000 NMOL IN 0.2 ML ACETONE APPLIED ONCE TO DORSAL SKIN 15 MIN PRIOR TO CARCINOGEN DOSE (STUDY DURATION: 20 WK), Route [Inhibitor]: DERMAL, Species: MOUSE, Strain/Sex: SENCAR/FEMALE, Target Tissue: Type of Lesion: SKIN: PAPILLOMA, Dose [Carcinogen]: 10 NMOL IN 0.2 ML ACETONE ONCE
  tumour outcome (control, treated, inhibition, significance): 100%, 100%, 0%, not significant
Carcinogen: BENZO[A]PYRENE, 50-32-8, Dose [Inhibitor]: 100 NMOL IN 0.2 ML ACETONE APPLIED ONCE TO DORSAL SKIN 15 MIN PRIOR TO CARCINOGEN DOSE (STUDY DURATION: 20 WK), Route [Inhibitor]: DERMAL, Species: MOUSE, Strain/Sex: SENCAR/FEMALE, Target Tissue: Type of Lesion: SKIN: PAPILLOMA, Dose [Carcinogen]: 200 NMOL IN 0.2 ML ACETONE ONCE
  tumour outcome (control, treated, inhibition, significance): 97%, 93%, 4%, not calculated
Carcinogen: BENZO[A]PYRENE, 50-32-8, Dose [Inhibitor]: 500 NMOL IN 0.2 ML ACETONE APPLIED ONCE TO DORSAL SKIN 15 MIN PRIOR TO CARCINOGEN DOSE (STUDY DURATION: 20 WK), Route [Inhibitor]: DERMAL, Species: MOUSE, Strain/Sex: SENCAR/FEMALE, Target Tissue: Type of Lesion: SKIN: PAPILLOMA, Dose [Carcinogen]: 200 NMOL IN 0.2 ML ACETONE ONCE
  tumour outcome (control, treated, inhibition, significance): 97%, 93%, 4%, not calculated
Carcinogen: BENZO[A]PYRENE, 50-32-8, Dose [Inhibitor]: 1000 NMOL IN 0.2 ML ACETONE APPLIED ONCE TO DORSAL SKIN 15 MIN PRIOR TO CARCINOGEN DOSE (STUDY DURATION: 20 WK), Route [Inhibitor]: DERMAL, Species: MOUSE, Strain/Sex: SENCAR/FEMALE, Target Tissue: Type of Lesion: SKIN: PAPILLOMA, Dose [Carcinogen]: 200 NMOL IN 0.2 ML ACETONE ONCE
  tumour outcome (control, treated, inhibition, significance): 97%, 100%, -3%, not calculated
Carcinogen: BENZO[A]PYRENE, 50-32-8, Dose [Inhibitor]: 2000 NMOL IN 0.2 ML ACETONE APPLIED ONCE TO DORSAL SKIN 15 MIN PRIOR TO CARCINOGEN DOSE (STUDY DURATION: 20 WK), Route [Inhibitor]: DERMAL, Species: MOUSE, Strain/Sex: SENCAR/FEMALE, Target Tissue: Type of Lesion: SKIN: PAPILLOMA, Dose [Carcinogen]: 200 NMOL IN 0.2 ML ACETONE ONCE
  tumour outcome (control, treated, inhibition, significance): 97%, 90%, 7%, not calculated
Carcinogen: BENZO[A]PYRENE, 50-32-8, Dose [Inhibitor]: 4000 NMOL IN 0.2 ML ACETONE APPLIED ONCE TO DORSAL SKIN 15 MIN PRIOR TO CARCINOGEN DOSE (STUDY DURATION: 20 WK), Route [Inhibitor]: DERMAL, Species: MOUSE, Strain/Sex: SENCAR/FEMALE, Target Tissue: Type of Lesion: SKIN: PAPILLOMA, Dose [Carcinogen]: 200 NMOL IN 0.2 ML ACETONE ONCE
  tumour outcome (control, treated, inhibition, significance): 97%, 96%, 0.3%, not calculated

## C[Se+](C)CC(=O)[O-]
Carcinogen: 7,12-DIMETHYLBENZ[A]ANTHRACENE, 57-97-6, Dose [Inhibitor]: 0, 0.000025 MOL/KG DIET BEGINNING 2 WK PRIOR TO CARCINOGEN AND CONTINUED FOR STUDY DURATION (STUDY DURATION: 25 WK), Route [Inhibitor]: ORAL, Species: RAT, Strain/Sex: CD-1/FEMALE, Target Tissue: Type of Lesion: MAMMARY GLAND: ADENOCARCINOMA, Dose [Carcinogen]: 10 MG ONCE, Promoter: NONE USED
  tumour outcome (control, treated, inhibition, significance): 20/25 (80%), 11/25 (44%), 45%, p<0.05

## O=c1ccc2cc(O)c(O)cc2o1
Carcinogen: 7,12-DIMETHYLBENZ[A]ANTHRACENE, 57-97-6, Dose [Inhibitor]: 0, 0.03% IN HIGH-FAT (20% SOYBEAN OIL) DIET FOR 19 WK BEGINNING 1 WK POST CARCINOGEN DOSE (STUDY DURATION: 20 WK), Route [Inhibitor]: ORAL, Species: RAT, Strain/Sex: SPRAGUE-DAWLEY/FEMALE, Target Tissue: Type of Lesion: MAMMARY GLAND: TUMOR, Dose [Carcinogen]: 5 MG ONCE, Promoter: NONE USED
  tumour outcome (control, treated, inhibition, significance): 13/15 (87%), 8/15 (53%), 39%, p<0.05
Carcinogen: 7,12-DIMETHYLBENZ[A]ANTHRACENE, 57-97-6, Dose [Inhibitor]: 0, 0.03% IN HIGH-FAT (20% SOYBEAN OIL) DIET FOR 20 WK BEGINNING 1 WK POST CARCINOGEN DOSE (STUDY DURATION: 21 WK), Route [Inhibitor]: ORAL, Species: RAT, Strain/Sex: SPRAGUE-DAWLEY/FEMALE, Target Tissue: Type of Lesion: MAMMARY GLAND: ADENOCARCINOMA, Dose [Carcinogen]: 5 MG ONCE, Promoter: NONE USED
  tumour outcome (control, treated, inhibition, significance): 17/20 (85%), 10/19 (53%), 38%, p<0.05
Carcinogen: 7,12-DIMETHYLBENZ[A]ANTHRACENE, 57-97-6, Dose [Inhibitor]: 0, 0.03% IN LOW-FAT (0.5% SOYBEAN OIL) DIET FOR 19 WK BEGINNING 1 WK POST CARCINOGEN DOSE (STUDY DURATION: 20 WK), Route [Inhibitor]: ORAL, Species: RAT, Strain/Sex: SPRAGUE-DAWLEY/FEMALE, Target Tissue: Type of Lesion: MAMMARY GLAND: TUMOR, Dose [Carcinogen]: 5 MG ONCE, Promoter: NONE USED
  tumour outcome (control, treated, inhibition, significance): 8/15 (53%), 3/15 (20%), 62%, not significant
Carcinogen: 7,12-DIMETHYLBENZ[A]ANTHRACENE, 57-97-6, Dose [Inhibitor]: 0, 0.03% IN LOW-FAT (0.5% SOYBEAN OIL) DIET FOR 20 WK BEGINNING 1 WK POST CARCINOGEN DOSE (STUDY DURATION: 21 WK), Route [Inhibitor]: ORAL, Species: RAT, Strain/Sex: SPRAGUE-DAWLEY/FEMALE, Target Tissue: Type of Lesion: MAMMARY GLAND: ADENOCARCINOMA, Dose [Carcinogen]: 5 MG ONCE, Promoter: NONE USED
  tumour outcome (control, treated, inhibition, significance): 10/18 (56%), 4/22 (18%), 68%, p<0.05
Carcinogen: N-METHYL-N-NITROSOUREA, 684-93-5, Dose [Inhibitor]: 0, 0.03% IN DIET FOR 24 WK BEGINNING 1 WK POST CARCINOGEN DOSE (STUDY DURATION: 25 WK), Route [Inhibitor]: ORAL, Species: RAT, Strain/Sex: SPRAGUE-DAWLEY/FEMALE, Target Tissue: Type of Lesion: MAMMARY GLAND: TUMOR, Dose [Carcinogen]: 50 MG/KG ONCE, Promoter: NONE USED
  tumour outcome (control, treated, inhibition, significance): 24/30 (80%), 17/31 (55%), 31%, p<0.05

## CC(O)CCC(=O)c1ccoc1 (centres undefined)
Carcinogen: 4-(METHYLNITROSAMINO)-1-(3-PYRIDYL)-1-BUTANONE, 64091-91-4, Dose [Inhibitor]: 0, 1 UMOL IN 0.1 ML CORN OIL ONCE 2 HR PRIOR TO CARCINOGEN DOSE (STUDY DURATION: 16 WK), Route [Inhibitor]: GAVAGE, Species: MOUSE, Strain/Sex: STRAIN-A/FEMALE, Target Tissue: Type of Lesion: LUNG: ADENOMA, Dose [Carcinogen]: 10 UMOL IN 0.1 ML SALINE ONCE, Promoter: NONE USED
  tumour outcome (control, treated, inhibition, significance): 100%, 100%, 0%, not significant
